Test results reported in article PMC10460728 (Journal of Pharmacokinetics and Pharmacodynamics, 2023).
Several values for one entry are separate records, joined by “and”; a condition that tells them apart may be missing. Identical values can stand only once. Like-named read-outs stand apart in the source and are kept apart here.

Tests used:
[1] = tested on: CYP1A2; assay: CYP1A2 mRNA induction in cultured human hepatocytes
[2] = plasma; ref FDA CP review; cited from earlier work
[3] = tested on: CYP2C9; assay: CYP2C9 mRNA induction in cultured human hepatocytes
[4] = PBPK models of enzalutamide and M2 (Simcyp)
Description: Many of the physicochemical properties and plasma protein binding data were obtained internally and also referenced from FDA documents, which are available from the FDA website. […] Accordingly, the solution formulation option in the Simcyp model was used.
The PBPK models of CYP2C8 inhibitor (gemfibrozil), CYP3A4 substrate (midazolam), and P-gp substrate (digoxin) were used from the Simcyp software library with models that were verified for their intended purpose.

[5] = tested on: CYP2C8; assay: CYP2C8 mRNA induction in cultured human hepatocytes
[6] = mean
[7] = tested on: P-gp; assay: P-gp mRNA induction in cultured human hepatocytes; type: cell-based
[8] = target: T1, OAT3 (Homo sapiens, UniProt Q8TCC7); assay: In vitro OAT3 inhibition (internal data); type: cell-based
T1 sequence (Q8TCC7 1-542): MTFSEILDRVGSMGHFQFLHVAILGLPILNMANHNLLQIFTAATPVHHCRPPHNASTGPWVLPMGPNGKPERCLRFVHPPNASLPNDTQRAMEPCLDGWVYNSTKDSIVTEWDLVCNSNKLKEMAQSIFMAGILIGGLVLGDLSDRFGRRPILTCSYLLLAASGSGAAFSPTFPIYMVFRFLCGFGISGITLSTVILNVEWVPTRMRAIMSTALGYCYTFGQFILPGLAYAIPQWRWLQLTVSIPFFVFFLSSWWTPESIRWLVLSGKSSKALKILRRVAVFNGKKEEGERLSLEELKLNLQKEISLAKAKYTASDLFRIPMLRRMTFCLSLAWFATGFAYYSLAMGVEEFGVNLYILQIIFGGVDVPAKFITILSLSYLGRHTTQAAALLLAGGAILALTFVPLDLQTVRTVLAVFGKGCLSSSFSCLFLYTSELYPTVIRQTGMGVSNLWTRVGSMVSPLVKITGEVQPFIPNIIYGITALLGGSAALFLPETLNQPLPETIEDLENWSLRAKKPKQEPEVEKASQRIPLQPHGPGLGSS

[9] = tested on: CYP2B6; assay: CYP2B6 mRNA induction in cultured human hepatocytes
[10] = tested on: CYP3A4
[11] = target: P-gp (human MDR1) (Homo sapiens, UniProt P08183); assay: In vitro P-gp inhibition: 3H-digoxin permeation across control and MDR1-expressing LLC-PK1 cell monolayers
Chain of P-gp (human MDR1) (P08183 whole entry): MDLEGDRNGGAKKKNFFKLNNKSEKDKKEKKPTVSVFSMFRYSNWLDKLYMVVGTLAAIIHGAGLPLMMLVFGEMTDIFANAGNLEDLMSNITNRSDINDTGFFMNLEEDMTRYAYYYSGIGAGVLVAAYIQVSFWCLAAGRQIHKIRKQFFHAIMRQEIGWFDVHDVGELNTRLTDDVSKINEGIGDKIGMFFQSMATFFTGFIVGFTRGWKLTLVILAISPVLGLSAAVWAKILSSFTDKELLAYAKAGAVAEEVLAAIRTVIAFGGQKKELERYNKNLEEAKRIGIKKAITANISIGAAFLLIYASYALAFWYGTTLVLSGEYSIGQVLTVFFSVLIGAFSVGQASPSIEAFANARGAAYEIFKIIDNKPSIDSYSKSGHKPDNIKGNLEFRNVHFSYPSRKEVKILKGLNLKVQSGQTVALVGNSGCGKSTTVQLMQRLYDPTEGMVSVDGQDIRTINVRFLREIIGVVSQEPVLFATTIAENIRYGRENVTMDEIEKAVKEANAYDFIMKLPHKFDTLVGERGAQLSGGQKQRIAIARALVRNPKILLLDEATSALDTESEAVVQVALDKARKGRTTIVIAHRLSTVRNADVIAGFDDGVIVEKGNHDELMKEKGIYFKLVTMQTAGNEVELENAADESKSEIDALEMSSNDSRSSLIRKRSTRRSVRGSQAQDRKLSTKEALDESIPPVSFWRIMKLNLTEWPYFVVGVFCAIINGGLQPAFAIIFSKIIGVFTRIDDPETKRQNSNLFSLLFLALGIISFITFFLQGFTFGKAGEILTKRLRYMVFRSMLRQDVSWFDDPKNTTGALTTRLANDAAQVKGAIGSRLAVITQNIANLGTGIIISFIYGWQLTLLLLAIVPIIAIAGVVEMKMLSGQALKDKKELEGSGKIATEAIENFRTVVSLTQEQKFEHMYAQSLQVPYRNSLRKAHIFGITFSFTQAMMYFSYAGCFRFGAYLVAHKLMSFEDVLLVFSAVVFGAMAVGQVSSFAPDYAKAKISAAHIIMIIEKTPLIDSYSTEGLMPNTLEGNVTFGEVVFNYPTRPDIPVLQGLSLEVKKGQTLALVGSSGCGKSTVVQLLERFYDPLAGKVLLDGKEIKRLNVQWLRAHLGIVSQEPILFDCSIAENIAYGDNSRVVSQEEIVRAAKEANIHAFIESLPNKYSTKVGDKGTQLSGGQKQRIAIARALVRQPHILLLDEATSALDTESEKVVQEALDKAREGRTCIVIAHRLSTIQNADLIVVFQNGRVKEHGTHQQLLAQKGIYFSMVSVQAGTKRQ
Experimental: MDR1-expressing cells (porcine kidney epithelial LLC-PK1 cells transfected with human MDR1 cDNA) was used. The MDR1-expressing cells were seeded at a density of 4 × 10^4 cells/insert in plates and were incubated in a CO2 incubator (37 °C, CO2: 5%) for 7 to 9 days to prepare cell monolayers. […] After incubation for 4 h at 37 °C, a 70-μL aliquot of the incubation solutions was collected as the analytical sample from the opposite compartment of that spiked with test solutions (receiver compartment). The collected samples were immediately combined with 10 mL of scintillator, and the radioactivity was counted using the LSC. Permeability coefficient (Papp) of ^3H-digoxin was calculated using the following equation: Pappcm/sec=[dQ/dt]/A/C0 where dQ/dt is the transport rate (dpm/sec); A is the membrane area (cm^2); C0 is the initial concentration (dpm/mL). The ratio of permeability coefficient (Papp ratio) was calculated from the basal to apical Papp and apical to basal Papp according to the following equation: Pappratio=BasaltoapicalPapp/ApicaltobasalPapp
Furthermore, the ratios of the Papp ratios in MDR1-expressing cells to the Papp ratios in control cells were calculated as corrected Papp ratio according to the following equation: CorrectedPappratio=PappratiooftheMDR1expressingcells/Pappratioofthecontrolcells
The % of control was calculated from the corrected Papp ratio according to the following equation: \% \,of\,control=CorrectedPappratio\,in\,the\,absence\,or\,presence\,of\,inhibitors/CorrectedPappratio\,in\,the\,absence\,of\,inhibitors×100

[12] = tested on: CYP2C19; assay: CYP2C19 mRNA induction in cultured human hepatocytes
[13] = tested on: CYP3A and P-gp; set-up: method as in PMID 33030266; settings: assumed in model development, verified with clinical DDI studies; cited from earlier work
[14] = tested on: P-gp and CYP3A; settings: apixaban; cited from earlier work
[15] = tested on: P-gp; settings: cited from earlier work
[16] = 100 µmol/L (enzalutamide, M2: two lots of hepatocyte)
[17] = once-daily oral 160 mg enzalutamide for 49 days
[18] = single oral 160 mg enzalutamide
[19] = 3H-digoxin 1 µmol/L, additive 0.1 µmol/L
[20] = 3H-digoxin 1 µmol/L, additive 0.3 µmol/L
[21] = 3H-digoxin 1 µmol/L, additive 1 µmol/L
[22] = 3H-digoxin 1 µmol/L, additive 3 µmol/L
[23] = 3H-digoxin 1 µmol/L, additive 10 µmol/L
[24] = 3H-digoxin 1 µmol/L, additive 25 µmol/L
[25] = multiple 160 mg doses of enzalutamide, mean (SD)
[26] = multiple oral 160 mg enzalutamide

For CC1(C)C(=O)N(c2ccc(C#N)c(C(F)(F)F)c2)C(=S)N1c1ccc(C(N)=O)c(F)c1 [M2, N-desmethyl enzalutamide], the “Fold increase CYP1A2 mRNA” value ([1]; 1 µmol/L) was […], the “Fold increase CYP1A2 mRNA” value ([1]; 10 µmol/L) was […] and the “Fold increase CYP1A2 mRNA” value [1, 16] was […]. The fu [2] was 0.0467, the “Fold increase CYP2C9 mRNA” value ([3]; 1 µmol/L) was […] and the “Fold increase CYP2C9 mRNA” value ([3]; 10 µmol/L) was […]. For the same compound, the “Fold increase CYP2C9 mRNA” value [3, 16] was […], the “CLint,HLM” value ([4]; PBPK model parameter, see text) was 1.399 μL/min/mg protein and the “CYP3A4 contribution to M2 elimination” value ([4]; set to recover M2 exposure after multiple doses of enzalutamide) was 9%. The “Fold increase CYP2C8 mRNA” value ([5]; 1 µmol/L) was […], the “Fold increase CYP2C8 mRNA” value ([5]; 10 µmol/L) was […] and the “Fold increase CYP2C8 mRNA” value [5, 16] was […]. For the same compound, the “AUCtau, observed” value [6, 17] was 278.3 µg·h/mL, the “Cmax, observed” value [6, 17] was 12680 ng/mL and the “Cmin, observed” value [6, 17] was 10570 ng/mL. For the same compound, the “MPR (MWC), observed” value [6, 17] was 0.913, the “AUCinf, observed” value [6, 18] was 395 µg·h/mL and the “Cmax, observed” value [6, 18] was 887 ng/mL. For the same compound, the “t1/2, observed” value [6, 18] was 179 h, the “Fold increase P-gp mRNA” value ([7]; 1 µmol/L) was […] and the “Fold increase P-gp mRNA” value ([7]; 10 µmol/L) was […]. For the same compound, the “Fold increase P-gp mRNA” value [7, 16] was […], the Ki [8] was 11500 nM and the “Fold increase CYP2B6 mRNA” value ([9]; 1 µmol/L) was […]. For the same compound, the “Fold increase CYP2B6 mRNA” value ([9]; 10 µmol/L) was […], the “Fold increase CYP2B6 mRNA” value [9, 16] was […] and the “Fold increase CYP3A4 mRNA” value ([10]; 1 µmol/L) was […]. For the same compound, the “Fold increase CYP3A4 mRNA” value ([10]; 10 µmol/L) was […], the “Fold increase CYP3A4 mRNA” value ([10]; hepatocytes) was […] and the “Indmax on CYP3A4, calibrated” value ([10]; hepatocytes) was […]. The “Indmax (maximal fold induction) CYP3A4” value ([10]; mRNA, human hepatocytes) was […], the EC50 ([10]; read-out: IndC50 CYP3A4, mRNA, human hepatocytes) was […] and the “Control cells Papp ratio” value [11, 19] was […]. For the same compound, the “Corrected Papp ratio” value [11, 19] was […], the “MDR1-expressing cells Papp ratio” value [11, 19] was […] and the “Control cells Papp ratio” value [11, 20] was […]. For the same compound, the “Corrected Papp ratio” value [11, 20] was […], the “MDR1-expressing cells Papp ratio” value [11, 20] was […] and the “Control cells Papp ratio” value [11, 21] was […]. For the same compound, the “Corrected Papp ratio” value [11, 21] was […], the “MDR1-expressing cells Papp ratio” value [11, 21] was […] and the “Control cells Papp ratio” value [11, 22] was […]. The “Corrected Papp ratio” value [11, 22] was […], the “MDR1-expressing cells Papp ratio” value [11, 22] was […] and the “Control cells Papp ratio” value [11, 23] was […]. For the same compound, the “Corrected Papp ratio” value [11, 23] was […], the “MDR1-expressing cells Papp ratio” value [11, 23] was […] and the “Control cells Papp ratio” value [11, 24] was […]. The “Corrected Papp ratio” value [11, 24] was […], the “MDR1-expressing cells Papp ratio” value [11, 24] was […] and the IC50 ([11]; read-out: IC50 (P-gp-mediated 3H-digoxin transport), 3H-digoxin 1 µmol/L, MDR1-expressing LLC-PK1 cells) was 1090 nM. The Ki ([11]; read-out: Ki on P-gp, IC50 regarded as Ki, PBPK model input) was 1090 nM, the “Fold increase CYP2C19 mRNA” value ([12]; 1 µmol/L) was […] and the “Fold increase CYP2C19 mRNA” value ([12]; 10 µmol/L) was […]. The “Fold increase CYP2C19 mRNA” value [12, 16] was […].
In the case of COc1ccc(-n2nc(C(N)=O)c3c2C(=O)N(c2ccc(N4CCCCC4=O)cc2)CC3)cc1 [Apixaban, apixaban], the “Contribution of CYP3A to hepatic metabolism” value [13] is listed as 42% and the “Decrease in AUC by rifampicin” value [14] is listed as 54%.
In the case of C[C@H]1O[C@@H](O[C@H]2[C@@H](O)C[C@H](O[C@H]3[C@@H](O)C[C@H](O[C@H]4CC[C@@]5(C)[C@H](CC[C@@H]6[C@@H]5C[C@@H](O)[C@]5(C)[C@@H](C7=CC(=O)OC7)CC[C@]65O)C4)O[C@@H]3C)O[C@@H]2C)C[C@H](O)[C@@H]1O [Digoxin, digoxin], the “AUC ratio, observed” value ([15]; geometric mean ratio (90% CI)) is listed as 1.29 (1.21–1.38), the “Cmax ratio, observed” value ([15]; geometric mean ratio (90% CI)) is listed as 1.17 (1.06–1.29) and the “AUC without enzalutamide, observed” value ([15]; mean (SD)) is listed as 22.1 (4.10) ng·h/mL. The “Cmax without enzalutamide, observed” value ([15]; mean (SD)) was 1.45 (0.314) ng/mL, the “AUC with enzalutamide, observed” value [15, 25] was 28.7 (5.79) ng·h/mL and the “Cmax with enzalutamide, observed” value [15, 25] was 1.69 (0.384) ng/mL. For the same compound, the “Increase in digoxin AUC by enzalutamide” value [15, 26] was 29% and the “Increase in digoxin Cmax by enzalutamide” value [15, 26] was 17%.
